From patent publication US8003604B2, “Hepatitis C virus inhibitors” (priority 2006, dated 2011)

How the values were obtained:
[1] = biological target: T1, HCV NS3/4A protease complex (Hepatitis C virus genotype 1a, UniProt P27958, C1454S/C1711G); assay: FRET peptide assay to monitor HCV NS3/4A proteolytic activity; assay type: biochemical
T1 construct: DNA encoding the recombinant HCV NS3/4A protease complex (amino acids 1027 to 1711) for these strains were manipulated; inferred from pET21b vector and Ni-NTA purification; made in house; host or cells: Escherichia coli BL21 (DE3), pET21b vector
T1 sequence (P27958 1027-1711 C1454S/C1711G, one chain of several): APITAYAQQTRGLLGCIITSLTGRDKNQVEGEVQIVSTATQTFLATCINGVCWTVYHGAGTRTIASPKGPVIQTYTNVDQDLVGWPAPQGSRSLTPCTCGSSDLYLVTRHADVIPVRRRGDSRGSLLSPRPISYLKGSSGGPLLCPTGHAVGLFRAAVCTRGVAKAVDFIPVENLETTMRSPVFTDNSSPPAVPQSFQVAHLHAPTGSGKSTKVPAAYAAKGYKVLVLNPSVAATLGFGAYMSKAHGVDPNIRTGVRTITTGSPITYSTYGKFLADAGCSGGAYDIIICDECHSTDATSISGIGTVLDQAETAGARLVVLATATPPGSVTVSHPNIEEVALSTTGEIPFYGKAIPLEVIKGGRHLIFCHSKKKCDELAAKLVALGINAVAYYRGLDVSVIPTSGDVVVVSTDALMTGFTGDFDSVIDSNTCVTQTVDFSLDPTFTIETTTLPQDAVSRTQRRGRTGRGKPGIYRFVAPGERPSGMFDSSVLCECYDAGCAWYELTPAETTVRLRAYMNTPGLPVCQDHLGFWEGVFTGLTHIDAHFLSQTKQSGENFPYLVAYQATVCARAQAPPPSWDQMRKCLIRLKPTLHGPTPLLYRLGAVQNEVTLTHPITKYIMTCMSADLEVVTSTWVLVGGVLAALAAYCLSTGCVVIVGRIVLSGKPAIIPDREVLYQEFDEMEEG
Text: HCV NS3 protease complexes, derived from the BMS strain, H77 strain or J4L6S strain, were generated, as described below. These purified recombinant proteins were generated for use in a homogeneous assay (see below) to provide an indication of how effective compounds of the present disclosure would be in inhibiting HCV NS3 proteolytic activity.
Serum from an HCV-infected patient was obtained from Dr. T. Wright, San Francisco Hospital. An engineered full-length cDNA (compliment deoxyribonucleic acid) template of the HCV genome (BMS strain) was constructed from DNA fragments obtained by reverse transcription-PCR (RT-PCR) of serum RNA (ribonucleic acid) and using primers selected on the basis of homology between other genotype 1a strains. From the determination of the entire genome sequence, a genotype 1a was assigned to the HCV isolate according to the classification of Simmonds et al. (See P Simmonds, K A Rose, S Graham, S W Chan, F McOmish, B C Dow, E A Follett, P L Yap and H Marsden, J. Clin. Microbiol., 31(6), 1493-1503 (1993)). […]

[2] = test system: HCV replicon in HUH-7 cells; assay: HCV replicon FRET assay (confirmed in replicon luciferase reporter assay); assay type: cell-based; settings: Hepatitis C virus, 96 h; HUH-7 cells constitutively expressing HCV 1b replicon, 4 days incubation
Text: An HCV replicon whole cell system was established as described by Lohmann V, Korner F, Koch J, Herian U, Theilmann L, Bartenschlager R., Science 285(5424):110-3 (1999). This system enabled us to evaluate the effects of our HCV Protease compounds on HCV RNA replication. Briefly, using the HCV strain 1b sequence described in the Lohmann paper (Accession number: AJ238799), an HCV cDNA was synthesized by Operon Technologies, Inc. (Alameda, Calif.), and the full-length replicon was then assembled in plasmid pGem9zf(+) (Promega, Madison, Wis.) using standard molecular biology techniques. […]
The HCV replicon FRET assay was developed to monitor the inhibitory effects of compounds described in the disclosure on HCV viral replication. […] After 4 days, cells were first assessed for cytotoxicity using alamar Blue (Trek Diagnotstic Systems) for a CC50 reading. The toxicity of compound (CC50) was determined by adding 1/10th volume of alamar Blue to the media incubating the cells. After 4 h, the fluorescence signal from each well was read, with an excitation wavelength at 530 nm and an emission wavelength of 580 nm, using the Cytofluor Series 4000 (Perspective Biosystems). […]

SMILES	IC50 [1]	EC50 [2]
CC(C)(C)OC(=O)N[C@H]1CCCCC/C=C\[C@@H]2C[C@@]2(C(=O)NS(=O)(=O)C2CC2)NC[C@@H]2C[C@@](O)(c3ccccc3)CN2C1=O [Compound 2]	9 nM	389 nM
CC(C)(C)OC(=O)N[C@H]1CCCCC/C=C\C2C[C@@]2(C(=O)NS(=O)(=O)C2CC2)NC(=O)[C@@H]2C[C@@H](c3ccccc3)CN2C1=O (stereo partly shown) [Compound 1]	18 nM	639 nM
